# According to ChEMBL document CHEMBL1649466, “High-throughput screening identifies novel inhibitors of the acetyltransferase activity of Escherichia coli GlmU” (Antimicrob Agents Chemother, 2009):
# Key:
# [1] = target: Bifunctional protein GlmU (Escherichia coli (strain K12)) (UniProt P0ACC7); test: Competitive inhibition of Acetyltransferase activity of Escherichia coli BL21(DE3) GlmU in presence of AcCoA
# [2] = target: Bifunctional protein GlmU (Escherichia coli (strain K12)) (UniProt P0ACC7); test: Uncompetitive inhibition of Acetyltransferase activity of Escherichia coli BL21(DE3) GlmU in presence of AcCoA
# [3] = target: Bifunctional protein GlmU (Escherichia coli (strain K12)) (UniProt P0ACC7); test: Uncompetitive inhibition of Acetyltransferase activity of Escherichia coli BL21(DE3) GlmU in presence of GlcN-1P
# Sequence of Bifunctional protein GlmU (Escherichia coli (strain K12)) (P0ACC7 whole entry, looked up): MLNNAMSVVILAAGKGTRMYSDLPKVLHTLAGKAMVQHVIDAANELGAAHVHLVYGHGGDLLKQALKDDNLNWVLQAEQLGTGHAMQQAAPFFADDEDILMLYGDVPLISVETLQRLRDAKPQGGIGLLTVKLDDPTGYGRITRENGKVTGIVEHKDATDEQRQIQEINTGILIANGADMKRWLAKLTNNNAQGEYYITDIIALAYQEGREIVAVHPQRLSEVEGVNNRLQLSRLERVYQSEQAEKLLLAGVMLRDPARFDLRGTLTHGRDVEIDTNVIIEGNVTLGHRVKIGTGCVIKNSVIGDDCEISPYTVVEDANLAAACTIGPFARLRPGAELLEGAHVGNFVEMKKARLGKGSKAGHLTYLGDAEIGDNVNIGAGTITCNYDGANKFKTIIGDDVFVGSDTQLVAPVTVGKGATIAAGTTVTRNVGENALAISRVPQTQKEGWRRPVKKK
Kic [1] [nM],Kiuc [2] [nM],Kiuc [3],Compound
22.8,101,–,O=C(CSc1nnc(SCC(=O)NCCSCc2ccco2)s1)NCCSCc1ccco1
17.2,–,189 nM,Nc1ccc(Nc2ccc(N)cc2S(=O)(=O)O)cc1
404,–,1.11 ×10³ nM,O=S(=O)(Nc1ccc(S(=O)(=O)c2ccc(-c3ccc(S(=O)(=O)c4ccc(NS(=O)(=O)c5ccc(Cl)cc5)c(Cl)c4)cc3)cc2)cc1Cl)c1ccc(Cl)cc1
